From patent US6469052B2, “Compounds for the photodecontamination of pathogens in blood” (Cerus Corporation, priority 1993, dated 2002)

Tested on: human platelets
Settings: 100 μM compound
Procedure: To measure the effects of the present compounds and methods of decontamination on platelet function using these four indicators, four samples were prepared for each compound tested, two control samples and two containing compound. Three units of human platelets were obtained from the Sacramento Blood Center, Sacramento, Calif. These were each transferred under sterile conditions to 50 ml centrifuge tubes, then aliquots of each unit were transferred into a second set of 50 ml sterile centrifuge tubes. To each centrifuge tube containing platelet concentrate (PC), an aliquot of compound stock was added to reach a final concentration of 100 μM of compound. […] The samples were pipetted gently up and down to mix. Then aliquots (either 3 ml or 8 ml) of each sample was transferred to two sterile Teflon™ Medi-bags™ (American Fluoroseal Co., Silver Springs, Md.) (presently owned by The West Company, Lionville, Pa.). Samples were treated in one of two different sized bags, having either 3 ml or 8 ml capacity. […] For each compound tested, two control samples without compound were prepared by again removing aliquots of platelet concentrate (17 ml if using an 8 ml bag, […] if using a 3 ml bag) from the same one of the first set of 50 ml centrifuge tubes from which the compound sample was drawn, and dividing into Medibags, as before. One of each pair of Medibags containing a compound, and one of each pair of control Medibags, were illuminated for 5 Joules/cm^2 on the device described in Example 1, above. Then all experimental and control Medibags were placed on a platelet shaker for storage for 5 days. The same experiments were repeated several times to obtain more statistically meaningful data, as represented by “n”, the number of data points represented, in the graphs of FIGS. 21-24, discussed below.
A Sysmex cell counter was used to measure platelet count in the platelet samples. Samples were diluted 1:3 in blood bank saline.

SMILES: Cc1oc2c(C)c3oc(=O)cc(C)c3cc2c1CNCCCCN [Compound 6, 4′-(6-amino-2-aza)hexyl-4,5′,8-trimethylpsoralen]
- platelet count, Day 5 treated sample versus Day 5 control (5 Joules/cm^2): counts equivalent to the 5 day control
- platelet count compared with samples treated with light alone (5 Joules/cm^2, 5 days storage): higher platelet count than samples treated with light alone
